Assay results taken from patent US20110039763A1, “TARGETED ANTIMICROBIAL MOIETIES” (C3 JIAN, INC., priority 2009, published 2011).
“Also recorded” adds a separate entry of the source.

Columns and labels:
microorganisms [1] = assay: Targeting peptide binding to target microorganisms (Tables 3, 10, 12); details: microorganism(s) the targeting peptide binds, preferably 1x PBS
microorganisms [2] = assay: Morphology, biofilm and growth disrupting peptides (Table 5); type: cell-based; design: key: A: Peptide aggregates; B: Less hyphal formation; Clumps; Diffuse clumps and small polyps; F: Diffuse growth; H: Thin; I: Growth inhibition; Microcolony formation; Rippled; Small polyps; Thick; W: Halo formation on top, microlonies on bottom
Description: In certain embodiments peptides that induce alterations in phenotype or other biological activities can also be used as antimicrobial effector moieties.

microorganisms [3] = assay: Peptide activities: targeting/binding, antimicrobial, growth or phenotype altering (Tables 7, 8); type: cell-based; details: peptides having multiple activities
[4] = binding in aqueous buffers varied with peptide solubility

PF-027: peptide having multiple activities (HNARKYLEFISQKIDGDKLTKEDSL; Peptide with targeting and/or antimicrobial activity)
Target(s) (microorganisms [1]; binding in aqueous buffers that varied with peptide solubility): M. luteus and MRSA and E. faecalis and C. jejuni
Organism, effect: MRSA (microorganisms [2]; MRSA): MRSA (M)
Organism, effect: S. epidermidis (microorganisms [2]; S. epidermidis): S. epidermidis (D)
Activities (microorganisms [3]): G B

PF-640: peptide having multiple activities (chain 1 MGDINRNF; chain 2 MGDINRNF; Peptide with targeting and/or antimicrobial activity)
Target(s) (microorganisms [1]; [4]): C. albicans
Organism, effect (microorganisms [2]; C. albicans): C. albicans (B)
Organism, effect (microorganisms [2]; E. faecalis): E. faecalis (H)
Organism, effect (microorganisms [2]; S. pneumoniae): S. pneumoniae (I)
Activities (microorganisms [3]): G B

PF-429: peptide having multiple activities (chain 1 AATLICVGSGIMSSL; chain 2 AATLICVGSGIMSSL; Peptide with targeting and/or antimicrobial activity)
Target(s) (microorganisms [1]; [4]): S. epidermidis; also recorded: S. pneumoniae; also recorded: C. jeikeium
Organism, effect (microorganisms [2]; E. faecalis): E. faecalis (C)
Organism, effect (microorganisms [2]; MRSA): MRSA (C)
Organism, effect (microorganisms [2]; S. epidermidis): S. epidermidis (C)
Organism, effect (microorganisms [2]; S. pneumoniae): S. pneumoniae (M)
Activities (microorganisms [3]): G B

PF-459: peptide having multiple activities (EKRMSFNENQSHRPLL; Peptide with targeting and/or antimicrobial activity)
Target(s) (microorganisms [1]; [4]): P. aeruginosa
Organism, effect (microorganisms [2]; S. pneumoniae): S. pneumoniae (H)
Activities (microorganisms [3]): G B

HKNKLNIPHIKS [PF-477]
Target(s) (microorganisms [1]; [4]): S. epidermidis; also recorded: M. luteus; also recorded: C. albicans; also recorded: S. pneumoniae; also recorded: C. jeikeium; also recorded: C. jejuni
Organism, effect (microorganisms [2]; S. pneumoniae): S. pneumoniae (H)
Activities (microorganisms [3]): G B

PF-390: peptide having multiple activities (chain 1 VVAYVITQVGAIRF; chain 2 VVAYVITQVGAIRF; Peptide with targeting and/or antimicrobial activity)
Target(s) (microorganisms [1]; [4]): S. epidermidis and P. aeruginosa and C. albicans and MRSA
Organism, effect: C. jejuni (microorganisms [2]; C. jejuni): C. jejuni (D)
Organism, effect: E. coli (microorganisms [2]; E. coli): E. coli (C)
Organism, effect: E. faecalis (microorganisms [2]; E. faecalis): E. faecalis (D)
Organism, effect: MRSA (microorganisms [2]; MRSA): MRSA (D)
Organism, effect: S. epidermidis (microorganisms [2]; S. epidermidis): S. epidermidis (D)
Organism, effect: S. pneumoniae (microorganisms [2]; S. pneumoniae): S. pneumoniae (D)
Activities (microorganisms [3]): G B

PF-164: peptide having multiple activities (EEVSRALAGIGLGLGCRIG; Peptide with targeting and/or antimicrobial activity)
Target(s) (microorganisms [1]; [4]): S. epidermidis; also recorded: M. luteus; also recorded: E. coli; also recorded: C. jeikeium
Organism, effect: C. jeikeium (microorganisms [2]; C. jeikeium): C. jeikeium (R)
Activities (microorganisms [3]): G B

PF-741: peptide having multiple activities (AKREDTVAAQIGANILNLIQ; Peptide with targeting and/or antimicrobial activity)
Target(s) (microorganisms [1]; [4]): S. epidermidis and M. luteus and P. mirabilis and P. aeruginosa and C. albicans and MRSA and S. pneumoniae and E. faecalis
Organism, effect (microorganisms [2]; E. coli): E. coli (C)
Organism, effect (microorganisms [2]; M. luteus): M. luteus (C)
Organism, effect (microorganisms [2]; MRSA): MRSA (C)
Organism, effect (microorganisms [2]; P. mirabilis): P. mirabilis (C)
Organism, effect (microorganisms [2]; S. epidermidis): S. epidermidis (C)
Organism, effect (microorganisms [2]; S. mutans): S. mutans (D)
Organism, effect (microorganisms [2]; S. pneumoniae): S. pneumoniae (D)
Activities (microorganisms [3]): G B

PF-C145: peptide having multiple activities (chain 1 YGKESDP; chain 2 YGKESDP; Peptide with targeting and/or antimicrobial activity)
Target(s) (microorganisms [1]; [4]): A. naeslundii; also recorded: F. nucleatum; also recorded: P. gingivalis; also recorded: S. mutans; also recorded: T. denticola
Organism, effect (microorganisms [2]; F. nucleatum): F. nucleatum (C)
Organism, effect (microorganisms [2]; S. mutans): S. mutans (I)
Activities (microorganisms [3]): G B

PF-C057: peptide having multiple activities (YFWWYWVQDCIPYKNNEVWLELSNNMK; Peptide with targeting and/or antimicrobial activity)
Target(s) (microorganisms [1]; [4]): A. naeslundii; also recorded: F. nucleatum; also recorded: P. gingivalis; also recorded: S. mutans
Organism, effect (microorganisms [2]; S. mutans): S. mutans (I)
Activities (microorganisms [3]): G B

PF-C052: peptide having multiple activities (SRFRNGV; Peptide with targeting and/or antimicrobial activity)
Target(s) (microorganisms [1]; [4]): A. naeslundii; also recorded: F. nucleatum; also recorded: S. mutans
Organism, effect (microorganisms [2]; P. gingivalis): P. gingivalis (H)
Activities (microorganisms [3]): G B

PF-764: peptide having multiple activities (GYFEPGKRD; Peptide with targeting and/or antimicrobial activity)
Target(s) (microorganisms [1]; [4]): S. epidermidis and M. luteus and C. albicans and MRSA and S. pneumoniae and E. faecalis and C. jeikeium
Organism, effect (microorganisms [2]; MRSA): MRSA (D)
Organism, effect (microorganisms [2]; S. pneumoniae): S. pneumoniae (H)
Activities (microorganisms [3]): G B

PF-271: peptide having multiple activities (chain 1 AAQPQTTSP; chain 2 AAQPQTTSP; Peptide with targeting and/or antimicrobial activity)
Target(s) (microorganisms [1]; [4]): S. epidermidis; also recorded: M. luteus; also recorded: P. aeruginosa; also recorded: A. baumannii
Organism, effect: M. luteus (microorganisms [2]; M. luteus): M. luteus (T)
Activities (microorganisms [3]): G B

PF-621: peptide having multiple activities (chain 1 PPSSFLV; chain 2 PPSSFLV; Peptide with targeting and/or antimicrobial activity)
Target(s) (microorganisms [1]; [4]): S. epidermidis; also recorded: C. albicans
Organism, effect (microorganisms [2]; E. faecalis): E. faecalis (H)
Organism, effect (microorganisms [2]; S. pneumoniae): S. pneumoniae (I)
Activities (microorganisms [3]): G B

PF-C136: peptide having multiple activities (chain 1 LILSYQASVYPLFAYLCQQKDY; chain 2 LILSYQASVYPLFAYLCQQKDY; Peptide with targeting and/or antimicrobial activity)
Target(s) (microorganisms [1]; [4]): A. naeslundii; also recorded: F. nucleatum; also recorded: P. gingivalis; also recorded: S. mutans; also recorded: T. denticola
Organism, effect (microorganisms [2]; F. nucleatum): F. nucleatum (C)
Organism, effect (microorganisms [2]; P. gingivalis): P. gingivalis (R)
Activities (microorganisms [3]): G B

PF-C131: peptide having multiple activities (chain 1 QWIVAKREIRMHIYCHISVIHVIIFFG; chain 2 QWIVAKREIRMHIYCHISVIHVIIFFG; Peptide with targeting and/or antimicrobial activity)
Target(s) (microorganisms [1]; [4]): A. naeslundii; also recorded: F. nucleatum; also recorded: P. gingivalis; also recorded: S. mutans
Organism, effect (microorganisms [2]; F. nucleatum): F. nucleatum (T)
Organism, effect (microorganisms [2]; S. mutans): S. mutans (F)
Activities (microorganisms [3]): G B

PF-144: peptide having multiple activities (chain 1 RSGQPVGRPSRRAWLR; chain 2 RSGQPVGRPSRRAWLR; Peptide with targeting and/or antimicrobial activity)
Target(s) (microorganisms [1]; [4]): S. epidermidis and M. luteus and E. coli and C. albicans and MRSA and S. pneumoniae and E. faecalis and C. jeikeium
Organism, effect: S. pneumoniae (microorganisms [2]; S. pneumoniae): S. pneumoniae (H)
Activities (microorganisms [3]): G B

PF-604: peptide having multiple activities (chain 1 LMEQVEV; chain 2 LMEQVEV; Peptide with targeting and/or antimicrobial activity)
Target(s) (microorganisms [1]; [4]): S. epidermidis; also recorded: C. albicans; also recorded: C. jeikeium
Organism, effect (microorganisms [2]; E. faecalis): E. faecalis (A)
Activities (microorganisms [3]): G B

PF-560: peptide having multiple activities (FGNPFRGFTLAMEADFKKRK; Peptide with targeting and/or antimicrobial activity)
Target(s) (microorganisms [1]; [4]): S. epidermidis; also recorded: M. luteus; also recorded: E. coli; also recorded: S. pneumoniae; also recorded: C. jeikeium; also recorded: C. jejuni
Organism, effect (microorganisms [2]; B. subtilis): B. subtilis (D)
Organism, effect (microorganisms [2]; C. jejuni): C. jejuni (A)
Organism, effect (microorganisms [2]; MRSA): MRSA (C)
Organism, effect (microorganisms [2]; S. pneumoniae): S. pneumoniae (R)
Activities (microorganisms [3]): G B

PF-378: peptide having multiple activities (chain 1 ESAKSNLNFLMQEEWALFLLL; chain 2 ESAKSNLNFLMQEEWALFLLL; Peptide with targeting and/or antimicrobial activity)
Target(s) (microorganisms [1]; [4]): B. subtilis; also recorded: B. fragilis; also recorded: E. coli; also recorded: P. aeruginosa; also recorded: C. jeikeium
Organism, effect: MRSA (microorganisms [2]; MRSA): MRSA (M)
Organism, effect: S. epidermidis (microorganisms [2]; S. epidermidis): S. epidermidis (M)
Activities (microorganisms [3]): G B

PF-452: peptide having multiple activities (MNNWIKVAQISVTVINEVIDIMKEKQNGGK; Peptide with targeting and/or antimicrobial activity)
Target(s) (microorganisms [1]; [4]): M. luteus; also recorded: P. aeruginosa; also recorded: C. albicans; also recorded: S. pneumoniae; also recorded: E. faecalis; also recorded: C. jeikeium; also recorded: M. smegmatis
Organism, effect (microorganisms [2]; E. coli): E. coli (C)
Organism, effect (microorganisms [2]; E. faecalis): E. faecalis (C)
Organism, effect (microorganisms [2]; MRSA): MRSA (C)
Organism, effect (microorganisms [2]; S. epidermidis): S. epidermidis (C)
Organism, effect (microorganisms [2]; S. pneumoniae): S. pneumoniae (R)
Activities (microorganisms [3]): G B

PF-746: peptide having multiple activities (FLGNSQYFTRK; Peptide with targeting and/or antimicrobial activity)
Target(s) (microorganisms [1]; [4]): S. epidermidis; also recorded: M. luteus; also recorded: E. coli; also recorded: C. albicans; also recorded: S. pneumoniae; also recorded: E. faecalis; also recorded: C. jeikeium
Organism, effect (microorganisms [2]; E. coli): E. coli (C)
Organism, effect (microorganisms [2]; M. luteus): M. luteus (C)
Organism, effect (microorganisms [2]; MRSA): MRSA (C)
Organism, effect (microorganisms [2]; P. aeruginosa): P. aeruginosa (A)
Organism, effect (microorganisms [2]; S. epidermidis): S. epidermidis (C)
Organism, effect (microorganisms [2]; S. mutans): S. mutans (D)
Organism, effect (microorganisms [2]; S. pneumoniae): S. pneumoniae (C)
Activities (microorganisms [3]): G B
